Experiment [1] concerns the target T1, Hexokinase-4 (Rattus norvegicus, UniProt P17712).
T1 sequence (P17712 whole entry): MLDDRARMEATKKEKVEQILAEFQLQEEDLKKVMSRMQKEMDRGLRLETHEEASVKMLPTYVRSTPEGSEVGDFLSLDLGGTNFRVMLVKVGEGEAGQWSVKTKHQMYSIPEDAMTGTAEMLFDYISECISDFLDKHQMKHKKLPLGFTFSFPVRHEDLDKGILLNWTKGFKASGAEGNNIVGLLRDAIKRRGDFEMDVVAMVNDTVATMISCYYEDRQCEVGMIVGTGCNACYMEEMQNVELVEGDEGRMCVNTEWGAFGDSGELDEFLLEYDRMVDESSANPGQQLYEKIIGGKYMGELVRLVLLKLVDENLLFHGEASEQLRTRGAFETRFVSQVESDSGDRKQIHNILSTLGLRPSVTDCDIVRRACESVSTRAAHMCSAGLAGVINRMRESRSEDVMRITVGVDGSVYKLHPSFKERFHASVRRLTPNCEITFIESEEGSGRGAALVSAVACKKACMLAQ
The experiment in a line: Effective concentration for glucokinase activation with 5 mM glucose. The experiment is classed as functional.

Experiment [2] addresses T1, Hexokinase-4. Description: Effective concentration for glucokinase activation with 15 mM glucose. It is filed as functional.
The target in experiment [3] is T2, Hexokinase-4 (Rattus norvegicus) (UniProt P17712).
T2 sequence (whole entry): T1 sequence (P17712 whole entry)
The experiment in a line: Maximal activation of glucokinase at 15 mM glucose.

The target in experiment [4] is T2, Hexokinase-4 (Rattus norvegicus). The experiment in a line: Maximal activation of glucokinase; NA - No activation at 30 uM.
The target in experiment [5] is T1, Hexokinase-4. The experiment in a line: Effective concentration for glucokinase activation; NA - No activation at 30 uM. It is filed as functional.
The target of experiment [6] is T1, Hexokinase-4. The experiment in a line: Effective concentration for glucokinase activity; NA - No activation at 30 uM. The experiment is classed as functional.

What is called EC50 is the midpoint of the concentration-response curve.

Molecules are shown by their SMILES. Activity calls are given as the source filed them. The calls are words filed in the database; no cut-off is given here.

Take `O=C(Nc1ncc(Cl)s1)N(CC1CCCC1)c1ccc(C(F)(F)F)cc1`: the midpoint of the response on Hexokinase-4 [1], the EC50, lay at 1.3 µM. This counts as single-digit micromolar.
The same measure, in the same setting: for `CS(=O)(=O)c1ccc(N(CC2CCCO2)C(=O)Nc2ncc(Cl)s2)cc1` (stereo not given) the value was 21.6 µM.
On the same count and under the same terms, for `CS(=O)(=O)c1ccc(N(Cc2ccsc2)C(=O)Nc2ncc(Cl)s2)cc1` the value was 6.8 µM.
Still for that read-out and setting: the same measure for `COc1ccc(N(CC2CCCC2)C(=O)Nc2ncc(Br)s2)cn1`: 2 µM.
As for `CS(=O)(=O)c1ccc(N(CC2CCCC2)C(=O)Nc2nccs2)cc1`, the concentration for a half-maximal effect (EC50) at Hexokinase-4 [2] was 9.7 µM; at Hexokinase-4 [1] it was 16 µM. Further, in experiment [3], the Activity worked out at 2.8.
In turn, `O=C(Nc1nccs1)N(CC1CCCC1)c1ccc(F)c(F)c1` displayed an EC50 on Hexokinase-4 [1] of 16.3 µM. That is a double-digit micromolar value.
At Hexokinase-4 [1], `N#Cc1ccc(N(CC2CCCC2)C(=O)Nc2ncc(Cl)s2)cn1` had a concentration for a half-maximal effect (EC50) of 7.7 µM.
Still for that read-out and setting: for `CS(=O)(=O)c1ccc(N(Cc2cccs2)C(=O)Nc2ncc(Cl)s2)cc1` the value was 6.6 µM; for `CS(=O)(=O)c1ccc(N(Cc2nccs2)C(=O)Nc2ncc(Br)s2)cc1`, 24.1 µM.
Take `COc1ccc(N(CC2CCCC2)C(=O)NC2=NC(=O)CS2)cn1`: the midpoint of the response at Hexokinase-4 [1], the EC50, lay at 29.1 µM. This EC50 and that of the compound before are within 1.5-fold of each other.
In turn, `CC(=O)Nc1cccc(N(CC2CCCC2)C(=O)Nc2ncc(Cl)s2)c1` registered an EC50 on Hexokinase-4 [1] of 0.3 µM.
The same measure, in the same setting: for `CS(=O)(=O)c1ccc(N(CC2CCCC2)C(=O)Nc2nnc(C(F)(F)F)s2)cc1` the value was 34.2 µM; for `CS(=O)(=O)c1ccc(N(CC2CCOC2)C(=O)Nc2ncc(Cl)s2)cc1` (stereo not given), 21.9 µM; for `COc1ccc(N(CC2CCCC2)C(=O)Nc2nccs2)cn1`, 19.2 µM.
On the same count and under the same terms, the same measure for `COc1cccc(N(CC2CCCC2)C(=O)Nc2ncc(Cl)s2)c1`: 1.4 µM; for `N#Cc1ccc(N(CC2CCCC2)C(=O)Nc2ncc(Cl)s2)cc1`: 2.4 µM.
On the same count and under the same terms, for `NS(=O)(=O)c1ccc(N(CC2CCCC2)C(=O)Nc2ncc(Cl)s2)cc1` the value was 1.8 µM.
As to `O=C(Nc1ccccn1)N(CC1CCCC1)c1ccc(F)c(F)c1`, the result in experiment [4] was inactive. The EC50 entry on Hexokinase-4 [5] is “Not Active”.
As for `O=C(Nc1ncc(Cl)s1)N(CC1CCCC1)c1ccc(Oc2ccccc2)cc1`, the result in experiment [4] was inactive. Also, the EC50 result on Hexokinase-4 [6] is on record as “Not Active”.
Turning to `CS(=O)(=O)c1ccc(C(CC2CCCC2)C(=O)Nc2nccs2)cc1` (stereo not given), the EC50 at Hexokinase-4 [2] stood at 1 µM; at Hexokinase-4 [1] it was 2.2 µM. Further, in experiment [3], the Activity worked out at 1.6.
`CS(=O)(=O)c1ccc(N(Cc2ccco2)C(=O)Nc2ncc(Cl)s2)cc1`: a half-maximal response at Hexokinase-4 [1] (EC50) required 11.5 µM.
Still for that read-out and setting: for `O=C(Nc1ncc(Cl)s1)N(CC1CCCC1)c1ccc(F)c(F)c1` the value was 2.6 µM; for `NC(=O)c1cccc(N(CC2CCCC2)C(=O)Nc2ncc(Cl)s2)c1`, 1 µM.
Same read-out and setting: the same measure for `COc1ccc(N(CC2CCCC2)C(=O)Nc2ncc(Cl)s2)cn1`: 2.7 µM.
Compound `CS(=O)(=O)c1ccc(N(CC2CCOCC2)C(=O)Nc2ncc(Cl)s2)cc1` displayed a concentration for a half-maximal effect (EC50) on Hexokinase-4 [1] of 4.9 µM.
Turning to `O=C(Nc1ncc(Cl)s1)N(CC1CCCC1)c1ccc(N2CCOCC2)cc1`, the outcome in experiment [4] was inactive. Also, the EC50 result on Hexokinase-4 [6] is recorded as “Not Active”.
`CS(=O)(=O)c1ccc(N(Cc2ccsc2)C(=O)Nc2ncc(Br)s2)cc1` registered an EC50 on Hexokinase-4 [1] of 6.5 µM.
With `Cc1ccc(N(CC2CCCC2)C(=O)Nc2ncc(Cl)s2)cc1Cl`, on Hexokinase-4 [1], it took 0.4 µM to reach a half-maximal effect (EC50).
On the same count and under the same terms, the same measure for `O=C(Nc1ncc(Cl)s1)N(CC1CCCC1)c1ccc(Br)c(F)c1`: 0.7 µM.
`COc1ccc(N(CC2CCCC2)C(=O)Nc2nncs2)cn1`: the result in experiment [4] was inactive. Besides, on Hexokinase-4 [5], the concentration for a half-maximal effect (EC50) result was “Not Active”.
For `CS(=O)(=O)c1ccc(N(CC2CCCC2)C(=O)Nc2ncc(Cl)s2)cc1`, the EC50 at Hexokinase-4 [1] stood at 1.5 µM.
Same read-out and setting: for `CS(=O)(=O)c1ccc(N(CC2CCCC2)C(=O)Nc2nc3ccc(S(C)(=O)=O)cc3s2)cc1` the value was 32.9 µM.

For the origin of these results see ChEMBL document CHEMBL1142024, “Glucokinase-activating ureas” (Bioorg Med Chem Lett, 2005).
